According to ChEMBL document CHEMBL4190357, “New Substituted Cyanoindoline Derivatives as MAP3K14 Kinase Inhibitors for the Treatment of Cancer and Autoimmune Disorders” (ACS Med Chem Lett, 2017):

How the values were obtained:
[1] = test system: KMS-12-BM; test: Antiproliferative activity against human KMS-12-BM cells after 96 hrs by CellTiter-Glo luminescence assay; type: functional, cell-based
[2] = test system: JJN-3; test: Antiproliferative activity against human JJN-3 cells after 96 hrs by CellTiter-Glo luminescence assay; type: functional, cell-based; details: JJN-3, 96 h
[3] = molecular target: T1, Mitogen-activated protein kinase kinase kinase 14 (Homo sapiens, UniProt Q99558); test: Inhibition of MAP3K14 in human L363 assessed as decrease in IKKalpha phosphorylation level after 2 hrs by sandwich immuno assay
[4] = molecular target: T1, Mitogen-activated protein kinase kinase kinase 14; test: Inhibition of recombinant human GST-tagged MAP3K14 autophosphorylation after 1 hr by Alpha screen assay

T1 sequence (Q99558 whole entry): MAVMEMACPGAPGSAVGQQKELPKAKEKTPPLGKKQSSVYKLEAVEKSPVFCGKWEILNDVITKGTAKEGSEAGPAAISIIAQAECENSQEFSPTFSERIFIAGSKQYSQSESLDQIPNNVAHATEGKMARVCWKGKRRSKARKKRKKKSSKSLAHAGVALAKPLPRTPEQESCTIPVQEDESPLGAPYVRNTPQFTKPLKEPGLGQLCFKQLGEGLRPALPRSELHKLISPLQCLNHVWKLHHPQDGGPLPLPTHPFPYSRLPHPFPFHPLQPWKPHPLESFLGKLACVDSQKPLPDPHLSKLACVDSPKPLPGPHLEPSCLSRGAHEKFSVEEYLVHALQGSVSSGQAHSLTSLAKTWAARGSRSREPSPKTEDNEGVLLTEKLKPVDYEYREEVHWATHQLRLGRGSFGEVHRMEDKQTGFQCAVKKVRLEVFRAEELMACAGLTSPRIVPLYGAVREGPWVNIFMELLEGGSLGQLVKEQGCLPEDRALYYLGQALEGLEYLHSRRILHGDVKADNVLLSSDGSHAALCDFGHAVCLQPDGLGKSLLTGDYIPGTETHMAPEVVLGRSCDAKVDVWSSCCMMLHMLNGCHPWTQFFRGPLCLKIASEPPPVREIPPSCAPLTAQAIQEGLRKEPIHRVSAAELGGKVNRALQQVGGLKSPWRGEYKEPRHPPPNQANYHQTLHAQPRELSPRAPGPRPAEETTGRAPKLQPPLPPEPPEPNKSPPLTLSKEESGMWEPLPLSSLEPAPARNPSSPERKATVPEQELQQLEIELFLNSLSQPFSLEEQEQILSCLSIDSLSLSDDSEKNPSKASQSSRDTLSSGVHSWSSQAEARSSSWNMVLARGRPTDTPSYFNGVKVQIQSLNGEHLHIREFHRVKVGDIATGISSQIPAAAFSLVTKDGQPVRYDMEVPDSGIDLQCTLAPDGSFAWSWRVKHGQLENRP

Structure (SMILES) | IC50 [3] | IC50 [4] | IC50 [1] | IC50 [2]
Cc1ccc(C#N)cc1Nc1ncc(F)c(-c2cc(C#N)c3c(c2)[C@@](C)(CO)CN3)n1 | 1.2 nM | – | > 10000 nM | 302 nM
CNC(=O)c1ccc(C)c(Nc2nccc(-c3cc(C#N)c4c(c3)[C@@](C)(CO)CN4)n2)c1 | 2.2 nM | 1.8 nM | 5190 nM | 85 nM
CNC(=O)c1ccc(OC(C)C)c(Nc2nccc(-c3cc(C#N)c4c(c3)[C@@](C)(CO)CN4)n2)c1 | 19.5 nM | – | > 10000 nM | 288 nM
CC(C)Oc1ccc(CO)cc1Nc1nccc(-c2cc(C#N)c3c(c2)[C@@](C)(CO)CN3)n1 | 6.6 nM | – | > 10000 nM | 141 nM
Cc1cc(CCN2CCOCC2)c(C#N)cc1Nc1nccc(-c2cc(C#N)c3c(c2)[C@@](C)(CO)CN3)n1 | 1.3 nM | – | > 10000 nM | 29 nM
CN1CC(F)C(Oc2ccc(C#N)cc2Nc2nccc(-c3cc(C#N)c4c(c3)[C@@](C)(CO)CN4)n2)C1 (some centres not stated) | 21.4 nM | – | > 10000 nM | 741 nM
Cc1cc(F)c(C#N)cc1Nc1nccc(-c2cc(C#N)c3c(c2)[C@@](C)(CO)CN3)n1 | 6 nM | – | > 10000 nM | 617 nM

Continued, in another order:

IC50 [3] | IC50 [4] | Structure (SMILES) | IC50 [1] | IC50 [2]
25.7 nM | – | CC(C)(O)COc1ccc(C#N)cc1Nc1nccc(-c2cc(C#N)c3c(c2)[C@@](C)(CO)CN3)n1 | 4900 nM | 138 nM
11.5 nM | – | C[C@]1(CO)CNc2c(C#N)cc(-c3ccnc(Nc4cc(C#N)ccc4OC4CC4)n3)cc21 | 1230 nM | 67 nM
7.8 nM | – | Cc1cc(F)c(CO)cc1Nc1nccc(-c2cc(C#N)c3c(c2)[C@@](C)(CO)CN3)n1 | > 10000 nM | 272 nM
6.3 nM | – | C[C@]1(CO)CNc2c(C#N)cc(-c3ccnc(Nc4cc(C#N)ccc4CO)n3)cc21 | > 10000 nM | 240 nM
2.2 nM | – | [2H]C([2H])(O)c1ccc(C)c(Nc2nccc(-c3cc(C#N)c4c(c3)[C@@](C)(CO)CN4)n2)c1 | > 10000 nM | 91 nM
